The text below walks through data of patent US20040235834A1, “Thiazoles useful as inhibitors of protein kinases” (priority 2003, published 2004).

Each structure is given as a SMILES string.

The target in one experiment is SYK (Homo sapiens, UniProt P43405). The experiment can be described thus: SYK inhibition assay (standard coupled enzyme assay). The format is biochemical. Conditions: 200 μM ATP, 4 μM poly Gly-Tyr peptide, 30° C. On the procedure:
Compounds were screened for their ability to inhibit SYK using a standard coupled enzyme assay (Fox et al., Protein Sci. 1998, 7, 2249). Reactions were carried out in 100 mM HEPES (pH 7.5), 10 mM MgCl2, 25 mM NaCl, 1 mM DTT and 1.5% DMSO. Final substrate concentrations in the assay were 200 μM ATP (Sigma chemical Co.) and 4 μM poly Gly—Tyr peptide (Sigma Chemical Co.). Assays were carried out at 30° C. and 200 nM SYK. Final concentrations of the components of the coupled enzyme system were 2.5 mM phosphoenolpyruvate, 300 μM NADH, 30 μg/ml pyruvate kinase and 10 μg/ml lactate dehydrogenase.
An assay stock buffer solution was prepared containing all of the reagents listed above, with the exception of SYK, DTT, and the test compound of interest of the present invention. 56 μl of the test reaction was placed in a 96 well plate followed by the addition of 1 μl of 2 mM DMSO stock containing the test compound of the present invnetion (final compound concentration 30 μM). The plate was pre-incubated for ˜10 minutes at 30° C. and the reaction initiated by the addition of 10 μl of enzyme (final concentration 25 nM).

For the next experiment, the target named is T1, ZAP-70 (Homo sapiens, UniProt P43403).
T1 sequence (P43403 1-619): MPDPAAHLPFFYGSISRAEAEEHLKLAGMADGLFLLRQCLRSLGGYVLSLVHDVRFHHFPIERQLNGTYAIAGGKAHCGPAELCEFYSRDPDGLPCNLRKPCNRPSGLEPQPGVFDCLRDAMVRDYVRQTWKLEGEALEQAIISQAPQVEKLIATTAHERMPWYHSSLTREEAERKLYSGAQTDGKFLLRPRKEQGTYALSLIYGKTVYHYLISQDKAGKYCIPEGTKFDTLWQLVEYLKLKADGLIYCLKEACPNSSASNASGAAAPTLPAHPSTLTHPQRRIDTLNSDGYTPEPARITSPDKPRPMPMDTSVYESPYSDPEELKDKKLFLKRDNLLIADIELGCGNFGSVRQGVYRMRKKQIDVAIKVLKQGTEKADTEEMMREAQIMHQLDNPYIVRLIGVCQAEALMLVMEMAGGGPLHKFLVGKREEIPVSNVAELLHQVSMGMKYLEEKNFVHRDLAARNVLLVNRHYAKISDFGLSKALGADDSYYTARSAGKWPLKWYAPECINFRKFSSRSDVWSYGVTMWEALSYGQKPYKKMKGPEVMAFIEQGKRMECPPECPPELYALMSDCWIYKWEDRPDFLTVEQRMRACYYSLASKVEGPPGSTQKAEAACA
The experiment can be described thus: ZAP-70 inhibition assay (standard coupled enzyme assay). The format is biochemical. Conditions: 100 μM ATP, 20 μM poly-4EY peptide, 30° C., 60 nM ZAP-70. The protocol: Compounds were screened for their ability to inhibit ZAP-70 using a standard coupled enzyme assay (Fox et al., Protein Sci. 1998, 7, 2249). Assays were carried out in a mixture of 100 mM HEPES (pH 7.5), 10 mM MgCl2, 25 mM NaCl, 2 mM DTT and 3% DMSO. Final substrate concentrations in the assay were 100 μM ATP (Sigma Chemicals) and 20 μM peptide (poly-4EY, Sigma Chemicals). Assays were carried out at 30° C. and 60 nM ZAP-70. Final concentrations of the components of the coupled enzyme system were 2.5 mM phosphoenolpyruvate, 300 μM NADH, 30 μg/ml pyruvate kinase and 10 μg/ml lactate dehydrogenase.
An assay stock buffer solution was prepared containing all of the reagents listed above, with the exception of ZAP-70 and the test compound of interest of the present invention. 55 μl of the stock solution was placed in a 96 well plate followed by addition of 2 μl of DMSO stock containing serial dilutions of the test compound of the present invention (typically starting from a final concentration of 15 μM). The plate was preincubated for 10 minutes at 30° C. and the reaction initiated by addition of 10 μl of enzyme (final concentration 60 nM). Initial reaction rates were determined with a Molecular Devices SpectraMax Plus plate reader over a 15 minute time course. Ki data was calculated from non-linear regression analysis using the Prism software package (GraphPad Prism version 3.Oa for Macintosh, GraphPad Software, San Diego Calif., USA).

`Cc1cc(C)cc(Nc2nccc(-c3cscn3)n2)c1` [Compound I-1]: the Ki at SYK and at ZAP-70 was not above 5 µM in each case.
`COc1cc(Nc2nccc(-c3cscn3)n2)cc(C(F)(F)F)c1` [Compound I-2]: the inhibitory constant (Ki) on SYK and at ZAP-70 was not above 5 µM each time.
`CC(=O)c1nc(-c2ccnc(Nc3cc(C)cc(C)c3)n2)cs1` [Compound I-3]: the Ki on SYK and at ZAP-70 was not above 5 µM each time.
With `Cc1cc(C)cc(Nc2nccc(-c3csc(CO)n3)n2)c1` [Compound I-4], the Ki at SYK and on ZAP-70 was not above 5 µM each time.
In the case of `Cc1cc(Nc2nccc(-c3cscn3)n2)cc(C(F)(F)F)c1` [Compound I-5], the inhibitory constant (Ki) on SYK and at ZAP-70 was not above 5 µM throughout.
Turning to `Oc1cc(Nc2nccc(-c3cscn3)n2)cc(C(F)(F)F)c1` [Compound I-6], the Ki at SYK and at ZAP-70 was not above 5 µM throughout.
